Common to all, as to format: biochemical
One test concerns the target T1, CDK4 (Homo sapiens, UniProt P11802).
T1 construct: made in house
The test can be described thus: CDK4 substrate phosphorylation assay (Rb protein, 33P-ATP). Particulars: Inhibition of CDK4. How it is done: (§1) The compounds of the present invention have valuable pharmacologic properties. Different compounds from this class are particularly effective at inhibiting CDK2 and/or CDK4 enzymes at concentrations, which range from 0.0001 to 1 μM and additionally show specificity relative to other kinases. Substrate phosphorylation assays were carried out as follows:
Cyclin D1 and cyclin-dependent kinase 4 were expressed utilizing a baculovirus expression system. The catalytic activity of CDK4 protein was assayed by measuring the phosphorylation of Rb protein. A truncated Rb protein (residues 773-928 of the native retinoblastoma protein, fused to glutathione S-transferase to facilitate purification) was used as the phosphoryl acceptor. The assay conditions were 100 mM HEPES (N-[2-hydroxyethyl]piperzine-N′-[2-ethanesulfonic acid]), pH 7.5, 0.5 μM GST-Rb protein, 1 μCi/mL [^33P]-ATP (1 nM-20 μM), 5-20 mM MgCl2, 2.5 mM EDTA, 1 mM dithiotheitol, 0.2 mg/mL bovine serum albumin, 2% (v/v) dimethyl sulfoxide (DMSO), CDK4 enzyme (5-50 nM) in a final volume of 50 μL. Reactions were incubated for time periods of 10-60 min at 30° C. and terminated by the addition of 50 μL quench (1 mM ATP/100 mM EDTA, pH 7.0). Detection of protein phosphorylation was accomplished by scintillation counting following collection of protein in 96 well plates coated with Glutathione or trapping of protein onto phosphocellulose filters. Counts detected by these methodologies minus the appropriate background were assumed to be proportional to the reaction initial rates. IC50 values were determined by measuring enzyme activity in the presence of different inhibitor concentrations (0.1 nM to 50 μM). IC50s were determined by a least squares fit to the equation CPM=Vmax*(1−([I]/(K+[I])))+nsb, or pIC50s were determined by a fit to the equation CPM=nsb+(Vmax−nsb)/(1+(x/10^x−pIC50)), where nsb are the background counts.

A further test addresses T2, CDK2 (Homo sapiens, UniProt P24941).
T2 construct: made in house
The test can be described thus: CDK2 substrate phosphorylation assay (biotinylated peptide, 32P-ATP). Particulars: Inhibition of CDK2. Here is the method: as §1
Cyclin dependent protein kinase 2 assays utilized the peptide Biotin-aminohexyl-ARRPMSPKKKA-NH2 as phosphoryl group acceptor. CDK2 was expressed utilizing a baculovirus expression system and was partially purified to comprise 20-80% of total protein, with no detectable competing reactions present. Typically, assays were performed by incubating enzyme (0.2-10 nM), with and without inhibitor, peptide substrate (1-10 nM), [g-^32P]ATP (1-20 nM), and 10-20 mM Mg^2+ for periods of time generally within the range 10-120 minutes. Reactions were terminated with 0.2-2 volumes of either 20% acetic acid or 50-100 mM EDTA buffered to pH 7 (substrate consumption <20%). The buffer employed in enzyme assay was 100 mM HEPES pH 7.5 containing 0.1 mg/mL BSA and 5% DMSO. Inhibitors were diluted in 100% DMSO prior to addition into the assay. Detection of peptide phosphorylation was accomplished by scintillation counting following either collection of peptide onto phosphocellulose filters (for reactions stopped with acetic acid), collection of peptide in wells of 96 well plates coated with Streptavidin (Pierce) (reactions were stopped with EDTA), or addition of Avidin coated Scintillant impregnated beads (Scintillation Proximity Assays from Amersham, reactions were stopped with EDTA). Counts detected by any of these methodologies minus the appropriate background (assays with additional 40 mM EDTA or lacking peptide substrate) were assumed to be proportional to the reaction initial rates, and IC50s were determined by a least squares fit to the equation CPM=Vmax*(1−([I]/(K+[I])))+nsb, or −pIC50s were determined by a fit to the equation CPM=nsb+(Vmax−nsb)/(1+(x/10^x−pIC50)), where nsb are the background counts. Filters are washed four times with 75 mM phosphoric acid. Radioactivity was determined by liquid scintillation counting.

Another test concerns the target hVEGFR2 (Homo sapiens, UniProt P35968). Nature of the test: VEGFR2 HTRF assay. As to conditions: Inhibition of VEGFR2. How it is done:
The compounds of the present invention elicit important and measurable pharmacological responses. Different compounds from this class are particularly effective at inhibiting VEGFR2 enzymes, as described by the VEGFR2 HTRF assay below, at concentrations, which range from 0.0001 to 1 μM.
The assays were performed in 96-well black plates. 10 nM hVEGFR2 was used to phosphorylate 0.36 μM peptide (Biotin-Ahx-EEEEYFELVAKKKK) in the presence of 75 μM ATP, 5 mM MgCl2, 0.3 mM DTT, 0.1 mg/ml BSA, and 0.1 M HEPES (pH 7.5). 10 μl 0.5 M EDTA was added to reactions as negative controls. The 50 μl kinase reaction with or without inhibitors in 5% DMSO was carried out at room temperature for 45 minutes, then stopped by 40 μl of 125 mM EDTA. 2.4 μg/ml Streptavidin-APC and 0.15 μg/ml Eu-α-pY, in the presence of 0.1 mg/ml BSA, 0.1 M HEPES (pH7.5), were added to a final volume of 140 μl. The plate was incubated for 10 min at room temperature (22° C.) and read on the Victor with the time resolved fluorescence mode by exciting at 340 nm and reading the emission at 665 nm.
• Peptide from Synpep (Dublin, Calif.) • ATP, MgCl2, DTT, BSA, HEPES, EDTA, DMSO from Sigma Streptavidin-APC from Molecular Probes (Eugene, Oreg.) • Eu-α-pY from EG&G Wallac (Gaithersburg, Md.)

T1 sequence (P11802 whole entry, species assumed): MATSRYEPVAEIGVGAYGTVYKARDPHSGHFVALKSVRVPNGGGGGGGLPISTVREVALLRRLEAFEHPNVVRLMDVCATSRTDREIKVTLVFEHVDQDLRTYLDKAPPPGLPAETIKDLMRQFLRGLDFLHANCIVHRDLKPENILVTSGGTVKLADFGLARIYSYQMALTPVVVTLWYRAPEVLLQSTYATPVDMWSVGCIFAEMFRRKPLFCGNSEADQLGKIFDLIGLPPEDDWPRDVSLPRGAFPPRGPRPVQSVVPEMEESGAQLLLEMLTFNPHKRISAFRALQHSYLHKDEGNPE
T1 sequence (P24385 whole entry partner, species assumed): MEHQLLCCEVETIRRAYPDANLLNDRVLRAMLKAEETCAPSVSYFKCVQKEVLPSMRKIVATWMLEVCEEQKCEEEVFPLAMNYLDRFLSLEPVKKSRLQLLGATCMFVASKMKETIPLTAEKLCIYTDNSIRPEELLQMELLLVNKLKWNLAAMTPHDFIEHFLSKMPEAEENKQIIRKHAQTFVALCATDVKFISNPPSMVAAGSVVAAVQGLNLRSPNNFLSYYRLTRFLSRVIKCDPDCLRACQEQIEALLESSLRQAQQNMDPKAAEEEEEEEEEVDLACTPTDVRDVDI
hVEGFR2, sequence (P35968 20-1356): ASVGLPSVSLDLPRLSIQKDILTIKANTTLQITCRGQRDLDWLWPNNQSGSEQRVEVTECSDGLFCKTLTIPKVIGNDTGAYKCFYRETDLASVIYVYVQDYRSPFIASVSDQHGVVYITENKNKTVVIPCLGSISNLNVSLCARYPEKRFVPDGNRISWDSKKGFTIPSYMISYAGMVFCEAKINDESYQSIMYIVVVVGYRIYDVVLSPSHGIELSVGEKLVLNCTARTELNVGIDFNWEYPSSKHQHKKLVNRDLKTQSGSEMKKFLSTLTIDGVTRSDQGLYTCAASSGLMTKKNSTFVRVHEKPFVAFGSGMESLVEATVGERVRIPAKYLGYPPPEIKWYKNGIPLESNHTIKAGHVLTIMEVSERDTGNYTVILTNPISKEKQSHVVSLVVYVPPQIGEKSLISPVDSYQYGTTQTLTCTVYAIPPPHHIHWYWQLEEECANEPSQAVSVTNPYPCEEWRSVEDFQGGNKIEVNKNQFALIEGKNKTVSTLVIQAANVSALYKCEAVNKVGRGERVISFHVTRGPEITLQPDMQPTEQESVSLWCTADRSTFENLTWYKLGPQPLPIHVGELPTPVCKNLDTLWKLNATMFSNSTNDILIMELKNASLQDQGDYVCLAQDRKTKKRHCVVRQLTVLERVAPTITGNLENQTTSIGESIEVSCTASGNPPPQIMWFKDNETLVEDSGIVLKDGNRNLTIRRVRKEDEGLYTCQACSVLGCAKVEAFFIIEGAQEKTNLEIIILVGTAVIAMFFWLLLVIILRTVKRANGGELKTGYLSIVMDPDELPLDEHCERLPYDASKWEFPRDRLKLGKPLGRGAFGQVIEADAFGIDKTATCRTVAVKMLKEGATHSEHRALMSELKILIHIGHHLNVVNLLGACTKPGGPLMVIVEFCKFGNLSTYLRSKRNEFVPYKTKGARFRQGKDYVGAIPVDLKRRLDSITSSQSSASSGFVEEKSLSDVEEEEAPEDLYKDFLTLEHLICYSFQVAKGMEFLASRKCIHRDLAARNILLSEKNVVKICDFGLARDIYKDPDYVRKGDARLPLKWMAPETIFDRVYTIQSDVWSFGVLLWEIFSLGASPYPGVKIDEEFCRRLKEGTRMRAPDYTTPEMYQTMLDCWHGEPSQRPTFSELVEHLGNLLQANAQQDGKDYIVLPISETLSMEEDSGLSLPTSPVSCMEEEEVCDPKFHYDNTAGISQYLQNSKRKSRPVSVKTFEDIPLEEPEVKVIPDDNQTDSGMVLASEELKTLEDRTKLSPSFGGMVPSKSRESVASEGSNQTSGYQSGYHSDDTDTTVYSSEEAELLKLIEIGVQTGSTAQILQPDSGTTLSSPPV

One may read the IC50 as the concentration that inhibits the measured activity by half. Lower therefore signals greater potency in that assay. For `COc1cccc(-c2cnc(Nc3ccccc3)o2)c1` [Example 1, 5-(3-methoxyphenyl)-N-phenyl-1,3-oxazol-2-amine], the 50% inhibitory concentration (IC50) at CDK4 is less than 1 µM; on CDK2 it was less than 1 µM; against hVEGFR2 it was less than 10 µM.

In the case of `Oc1cccc(-c2cnc(Nc3ccccc3)o2)c1` [Example 2, 3-(2-anilino-1,3-oxazol-5-yl)phenol], the half-inhibitory concentration (IC50) at CDK4, against CDK2 and against hVEGFR2 was less than 1 µM throughout.

For the molecule `CN1CCN(c2ccc(Nc3ncc(-c4ccccc4)o3)cc2)CC1` [Example 3, N-[4-(4-methylpiperazin-1-yl)phenyl]-5-phenyl-1,3-oxazol-2-amine], the IC50 against CDK4 was less than 1 µM; against CDK2, less than 10 µM; at hVEGFR2 it was less than 1 µM.

Turning to `COc1cccc(-c2cnc(Nc3ccc(N4CCN(C)CC4)cc3)o2)c1` [Example 4, 5-(3-Methoxyphenyl)-N-[4-(4-methylpiperazin-1-yl)phenyl]-1,3-oxazol-2-amine], the IC50 was less than 0.1 µM on CDK4, less than 1 µM against CDK2 and less than 1 µM on hVEGFR2.

For the molecule `CCOc1cccc(-c2cnc(Nc3ccc(N4CCN(C)CC4)cc3)o2)c1` [Example 5, 5-(3-Ethoxyphenyl)-N-[4-(4-methylpiperazin-1-yl)phenyl]-1,3-oxazol-2-amine], the half-inhibitory concentration (IC50) against CDK4 was less than 0.1 µM; against CDK2, less than 1 µM; at hVEGFR2, less than 1 µM.

Consider `CCN1CCN(c2ccc(Nc3ncc(-c4cccc(OC)c4)o3)cc2)CC1` [Example 6, N-[4-(4-Ethylpiperazin-1-yl)phenyl]-5-(3-methoxyphenyl)-1,3-oxazol-2-amine], for which the figures for the IC50 on CDK4, against CDK2 and at hVEGFR2 were less than 0.1 µM, less than 1 µM and less than 1 µM, respectively.

`CCN1CCN(c2ccc(Nc3ncc(-c4ccccc4)o3)cc2)CC1` [Example 7, N-[4-(4-Ethylpiperazin-1-yl)phenyl]-5-phenyl-1,3-oxazol-2-amine]: the results for the 50% inhibitory concentration (IC50) against CDK4, on CDK2 and against hVEGFR2 were less than 1 µM, less than 10 µM and less than 1 µM, respectively.

On to `c1ccc(-c2cnc(Nc3ccc(CN4CCOCC4)cc3)o2)cc1` [Example 8, N-[4-(Morpholin-4-ylmethyl)phenyl]-5-phenyl-1,3-oxazol-2-amine], for which the figures for the IC50 against CDK4, at CDK2 and against hVEGFR2 were less than 1 µM, less than 10 µM and less than 1 µM, respectively.

With `COc1cccc(-c2cnc(Nc3ccc(N4CCOCC4)cc3)o2)c1` [Example 9, 5-(3-Methoxyphenyl)-N-(4-morpholin-4-ylphenyl)-1,3-oxazol-2-amine], the IC50 against CDK4, at CDK2 and against hVEGFR2 was less than 1 µM in each case.

For `COc1cccc(-c2cnc(Nc3ccc(N4CCCCC4)cc3)o2)c1` [Example 10, 5-(3-Methoxyphenyl)-N-(4-piperidin-1-ylphenyl)-1,3-oxazol-2-amine], the figures for the IC50 against CDK4 and at hVEGFR2 were less than 10 µM and less than 1 µM, respectively.

As to `COc1cccc(-c2cnc(Nc3ccc(CN4CCOCC4)cc3)o2)c1` [Example 11, 5-(3-Methoxyphenyl)-N-[4-(morpholin-4-ylmethyl)phenyl]-1,3-oxazol-2-amine], the IC50 at CDK4, on CDK2 and at hVEGFR2 was less than 1 µM throughout.

For `CC(C)Oc1cccc(-c2cnc(Nc3ccc(N4CCN(C)CC4)cc3)o2)c1` [Example 12, 5-(3-Isopropoxyphenyl)-N-[4-(4-methylpiperazin-1-yl)phenyl]-1,3-oxazol-Z -amine], the results for the IC50 against CDK4, on CDK2 and at hVEGFR2 were less than 0.1 µM, less than 0.1 µM and less than 1 µM, respectively.

As for `CN1CCN(c2ccc(Nc3ncc(-c4cccc(OC5CCCC5)c4)o3)cc2)CC1` [Example 13, 5-[3-(cyclopentyloxy)phenyl]-N-[4-(4-methylpiperazin-1-yl)phenyl]-1,3-oxazol-2-amine], the 50% inhibitory concentration (IC50) against CDK4, on CDK2 and on hVEGFR2 was less than 0.1 µM throughout.

As to `CC(C)COc1cccc(-c2cnc(Nc3ccc(N4CCN(C)CC4)cc3)o2)c1` [Example 14, 5-(3-Isobutoxyphenyl)-N-[4-(4-methylpiperazin-1-yl)phenyl]-1,3-oxazol-2-amine], the IC50 on CDK4 was less than 0.1 µM; against CDK2 it was less than 1 µM; on hVEGFR2, less than 1 µM.

On to `CN1CCN(c2ccc(Nc3ncc(-c4cccc(OCc5ccccc5)c4)o3)cc2)CC1` [Example 15, 5-[3-(Benzyloxy)phenyl]-N-[4-(4-methylpiperazin-1-yl)phenyl]-1,3-oxazol-2-amine], for which the half-inhibitory concentration (IC50) is less than 0.1 µM against CDK4, less than 1 µM against CDK2 and less than 1 µM against hVEGFR2.

Consider `C=C(C)COc1cccc(-c2cnc(Nc3ccc(N4CCN(C)CC4)cc3)o2)c1` [Example 16, N-[4-(4-methylpiperazin-1-yl)phenyl]-5-{3-[(2-methylprop-2-enyl)oxy]phenyl}-1,3-oxazol-2-amine], for which the IC50 is less than 0.1 µM against CDK4, less than 0.1 µM against CDK2 and less than 1 µM on hVEGFR2.

Turning to `CCCOc1cccc(-c2cnc(Nc3ccc(N4CCN(C)CC4)cc3)o2)c1` [Example 17, N-[4-(4-methylpiperazin-1-yl)phenyl]-5-(3-propoxyphenyl)-1,3-oxazol-2-amine], the results for the 50% inhibitory concentration (IC50) against CDK4, at CDK2 and against hVEGFR2 were less than 0.1 µM, less than 1 µM and less than 0.1 µM, respectively.

For the molecule `CN1CCN(c2ccc(Nc3ncc(-c4cccc(OC5CCCCC5)c4)o3)cc2)CC1` [Example 18, 5-[3-(cyclohexyloxy)phenyl]-N-[4-(4-methylpiperazin-1-yl)phenyl]-1,3-oxazol-2-amine], the concentration for half-maximal inhibition (IC50) against CDK4 was less than 0.1 µM; on CDK2, less than 0.1 µM; against hVEGFR2, less than 1 µM.

Regarding `COc1cccc(-c2cnc(Nc3ccc(N4CCN(C)CC4)c(Cl)c3)o2)c1` [Example 19, N-[3-chloro-4-(4-methylpiperazin-1-yl)phenyl]-5-(3-methoxyphenyl)-1,3-oxazol-2-amine], the half-maximal inhibitory concentration (IC50) was less than 0.1 µM at CDK4, less than 1 µM against CDK2 and less than 1 µM on hVEGFR2.

`CN1CCN(c2ccc(Nc3ncc(-c4cccc(O)c4)o3)cc2)CC1` [Example 29, 3-(2-{[4-(4-methylpiperazin-1-yl)phenyl]amino}-1,3-oxazol-5-yl)phenol]: the IC50 at CDK4 is less than 0.1 µM; on hVEGFR2, less than 1 µM.

Regarding `CN(C)Cc1ccc(Nc2ncc(-c3cccc(OC4CCCC4)c3)o2)cc1` [Example 41, 5-[3-(cyclopentyloxy)phenyl]-N-{4-[(dimethylamino)methyl]phenyl}-1,3-oxazol-2-amine], the figures for the IC50 at CDK4 and against hVEGFR2 were less than 0.1 µM and less than 1 µM, respectively.

(Values after patent US20070142437A1, “CHEMICAL COMPOUNDS” (priority 2005, published 2007).)
